Results reported in the NIST ThermoML archive (doi:10.1016/j.jct.2019.105881).

Experiment: wn = mass fraction of the nth substance listed
Settings: 100 kPa, Liquid, transient hot wire

CCCCCCCCCCCC(=O)OC [methyl dodecanoate] + CCCCCO
Settings	thermal conductivity [W/m/K]
287.79 K, w1 = 0.6756	0.1488
287.86 K, w1 = 0.2997	0.1497
287.92 K, w1 = 0.5029	0.1493
288 K, w1 = 0.1021	0.1503
288.01 K, w1 = 0.8983	0.1482
297.82 K, w1 = 0.1021	0.1486
297.86 K, w1 = 0.5029	0.1475
297.95 K, w1 = 0.6756	0.1469
298.07 K, w1 = 0.2997	0.148
298.1 K, w1 = 0.8983	0.1456
307.72 K, w1 = 0.1021	0.1468
307.78 K, w1 = 0.6756	0.145
307.8 K, w1 = 0.5029	0.1453
307.84 K, w1 = 0.2997	0.1455
307.9 K, w1 = 0.8983	0.1441
317.72 K, w1 = 0.1021	0.1441
317.72 K, w1 = 0.2997	0.1435
317.8 K, w1 = 0.6756	0.1424
317.85 K, w1 = 0.5029	0.1429
317.85 K, w1 = 0.8983	0.1419
327.58 K, w1 = 0.1021	0.1422
327.68 K, w1 = 0.2997	0.1412
327.7 K, w1 = 0.6756	0.1407
327.72 K, w1 = 0.5029	0.141
327.87 K, w1 = 0.8983	0.1397
337.42 K, w1 = 0.1021	0.1399
337.53 K, w1 = 0.2997	0.139
337.67 K, w1 = 0.5029	0.1389
337.76 K, w1 = 0.6756	0.1385
337.85 K, w1 = 0.8983	0.1373
347.5 K, w1 = 0.2997	0.137
347.65 K, w1 = 0.1021	0.138
347.66 K, w1 = 0.5029	0.1368
347.7 K, w1 = 0.8983	0.1352
347.78 K, w1 = 0.6756	0.1356
357.16 K, w1 = 0.1021	0.1364
357.47 K, w1 = 0.2997	0.135
357.65 K, w1 = 0.5029	0.1348
357.73 K, w1 = 0.6756	0.1335
357.79 K, w1 = 0.8983	0.1332

CCCCCCCCCCCC(=O)OC [methyl dodecanoate] + CCCCO
Settings	thermal conductivity [W/m/K]
287.91 K, w1 = 0.3009	0.1499
287.94 K, w1 = 0.1013	0.1515
287.95 K, w1 = 0.5027	0.1492
288.07 K, w1 = 0.6997	0.1488
288.14 K, w1 = 0.8996	0.1485
297.76 K, w1 = 0.1013	0.1489
297.9 K, w1 = 0.6997	0.1469
297.92 K, w1 = 0.5027	0.1471
297.95 K, w1 = 0.3009	0.1475
298.02 K, w1 = 0.8996	0.1463
307.79 K, w1 = 0.1013	0.1465
307.81 K, w1 = 0.3009	0.1457
307.83 K, w1 = 0.5027	0.1452
307.96 K, w1 = 0.8996	0.1441
307.99 K, w1 = 0.6997	0.1445
317.67 K, w1 = 0.3009	0.1434
317.75 K, w1 = 0.1013	0.144
317.8 K, w1 = 0.5027	0.1426
317.83 K, w1 = 0.8996	0.1422
317.88 K, w1 = 0.6997	0.1424
327.6 K, w1 = 0.1013	0.1419
327.69 K, w1 = 0.3009	0.1411
327.94 K, w1 = 0.5027	0.14
327.94 K, w1 = 0.6997	0.1398
328.11 K, w1 = 0.8996	0.139
337.45 K, w1 = 0.3009	0.1386
337.47 K, w1 = 0.1013	0.1395
337.93 K, w1 = 0.5027	0.1378
337.95 K, w1 = 0.8996	0.1371
337.96 K, w1 = 0.6997	0.1375
347.23 K, w1 = 0.1013	0.1368
347.28 K, w1 = 0.3009	0.1361
347.67 K, w1 = 0.6997	0.1354
347.73 K, w1 = 0.5027	0.1358
347.86 K, w1 = 0.8996	0.135
357.25 K, w1 = 0.3009	0.1333
357.28 K, w1 = 0.1013	0.1342
357.71 K, w1 = 0.8996	0.1322
357.82 K, w1 = 0.5027	0.133
357.87 K, w1 = 0.6997	0.1327

CCCCCCCCCCCC(=O)OC [methyl dodecanoate] + CCCO
Settings	thermal conductivity [W/m/K]
287.68 K, w1 = 0.6993	0.1497
287.9 K, w1 = 0.298	0.1522
287.91 K, w1 = 0.1	0.1542
288 K, w1 = 0.4998	0.1509
288.06 K, w1 = 0.8996	0.1484
297.73 K, w1 = 0.6993	0.1473
297.79 K, w1 = 0.1	0.1517
297.85 K, w1 = 0.4998	0.1484
297.85 K, w1 = 0.8996	0.1467
297.93 K, w1 = 0.298	0.1494
307.66 K, w1 = 0.1	0.1492
307.76 K, w1 = 0.4998	0.1457
307.83 K, w1 = 0.298	0.1474
307.89 K, w1 = 0.8996	0.1445
308.03 K, w1 = 0.6993	0.1452
317.53 K, w1 = 0.298	0.1451
317.62 K, w1 = 0.1	0.1474
317.67 K, w1 = 0.4998	0.1436
317.86 K, w1 = 0.6993	0.1429
318.02 K, w1 = 0.8996	0.1422
327.34 K, w1 = 0.298	0.1424
327.67 K, w1 = 0.1	0.1446
327.67 K, w1 = 0.4998	0.1412
327.68 K, w1 = 0.8996	0.1398
328.03 K, w1 = 0.6993	0.1405
337.22 K, w1 = 0.1	0.1423
337.4 K, w1 = 0.298	0.14
337.64 K, w1 = 0.4998	0.1391
337.82 K, w1 = 0.6993	0.1384
337.85 K, w1 = 0.8996	0.1377
347.19 K, w1 = 0.1	0.139
347.24 K, w1 = 0.298	0.1374
347.52 K, w1 = 0.4998	0.1368
347.82 K, w1 = 0.6993	0.1362
347.93 K, w1 = 0.8996	0.135
357.25 K, w1 = 0.1	0.1365
357.44 K, w1 = 0.298	0.1351
357.79 K, w1 = 0.4998	0.1344
357.91 K, w1 = 0.6993	0.1337
357.93 K, w1 = 0.8996	0.1326
